# Test results as given in patent publication US6436988B1, “Use of 3-(2,4,6-trimethylphenyl)-4-neopentylcarbonyloxy-5,5- tetramethylene-Δ3-dihydrofuran-2-one for controlling the white fly” (Bayer Aktiengesellschaft, priority 1999, dated 2002).
# Test system: white fly Bemisia tabaci
# Experiment: Bemisia test
# Type: in vivo
# Conditions: concentration of active compound 0.0008 %, infested cotton plants (Gossypium hirsutum) with eggs, larvae and pupae dipped into preparation
# Experimental: Solvent: 7.5 parts by weight of dimethylformamide
# Emulsifier: 2.5 parts by weight of alkylaryl polyglycol ether
# To produce a suitable preparation of active compound, 1 part by weight of active compound is mixed with the stated amounts of solvent and emulsifier, and the concentrate is diluted with water to the desired concentrations.
# Cotton plants (Gossypium hirsutum) infested by eggs, larvae and pupae of the white fly Bemisia tabaci are dipped into a preparation of active compound of the desired concentration.
# After the desired period of time, the kill in % is determined. 100% means that all animals have been killed; 0% means that none of the animals have been killed.
row,Structure (SMILES),Kill in % after 14 days
1,Cc1cc(C)c(C2=C(OC(=O)CC(C)(C)C)C3(CCCCC3)OC2=O)c(C)c1,50%
2,Cc1cc(C)c(C2=C(OC(=O)C(C)(C)C)C3(CCCC3)OC2=O)c(C)c1,0%
3,Cc1cc(C)c(C2=C(OC(=O)CC(C)C)C3(CCCC3)OC2=O)c(C)c1,0%
4,"Cc1cc(C)c(C2=C(OC(=O)CC(C)(C)C)C3(CCCC3)OC2=O)c(C)c1 [formula (I), 3-(2,4,6-Trimethylphenyl)-4-neopentylcarbonyloxy-5,5-tetramethylene-Δ^3-dihydrofuran-2-one]",95%
